Test system: patients with fasting triglyceride levels >200 mg/dl and <500 mg/dl despite statin therapy
Experiment: 12-week study: lipid profile (TC, LDL-C, HDL-C, non-HDL-C, VLDL-C, VLDL-TG, RLP-C)
Type: in vivo, human
Conditions: MITT
Text: Parameters (a)-(z) can be measured in accordance with any clinically acceptable methodology. For example, triglycerides, total cholesterol, HDL-C and fasting blood sugar can be sample from serum and analyzed using standard photometry techniques. VLDL-TG, LDL-C and VLDL-C can be calculated or determined using serum lipoprotein fractionation by preparative ultracentrifugation and subsequent quantitative analysis by refractometry or by analytic ultracentrifugal methodology. Apo A1, Apo B and hsCRP can be determined from serum using standard nephelometry techniques. Lipoprotein (a) can be determined from serum using standard turbidimetric immunoassay techniques. LDL particle number and particle size can be determined using nuclear magnetic resonance (NMR) spectrometry. Remnants lipoproteins and LDL-phospholipase A2 can be determined from EDTA plasma or serum and serum, respectively, using enzymatic immunoseparation techniques. Oxidized LDL, intercellular adhesion molecule-1 and interleukin-2 levels can be determined from serum using standard enzyme immunoassay techniques. These techniques are described in detail in standard textbooks, for example Tietz Fundamentals of Clinical Chemistry, 6th Ed. (Burtis, Ashwood and Borter Eds.), WB Saunders Company.
A multi-center, placebo-controlled, randomized, double-blind, 12-week study was performed to evaluate the efficacy and safety of >96% E-EPA in patients with fasting triglyceride levels >200 mg/dl and <500 mg/dl despite statin therapy (the mean of two qualifying entry values needed to be >185 mg/dl and at least one of the values needed to be >200 mg/dl). The primary objective of the study was to determine the efficacy of >96% E-EPA 2 g daily and 4 g daily, compared to placebo, in lowering fasting TG levels in patients with high risk for cardiovascular disease and with fasting TG levels 200 mg/dl and <500 mg/dl, despite treatment to LDL-C goal on statin therapy.
The secondary objectives of this study were the following: • 1. To determine the safety and tolerability of >96% E-EPA 2 g daily and 4 g daily; • 2. To determine the effect of >96% E-EPA on lipid and apolipoprotein profiles including total cholesterol (TC), non-high-density lipoprotein cholesterol (non-HDL-C), low density lipoprotein cholesterol (LDL-C), high density lipoprotein cholesterol (HDL-C), and […]; • 3. To determine the effect of >96% E-EPA on lipoprotein associated phospholipase A2 (Lp-PLA2) from baseline to week 12; • 4. To determine the effect of >96% E-EPA on low-density lipoprotein (LDL) particle number and size; • 5. To determine the effect of >96% E-EPA on oxidized LDL; • 6. To determine the effect of >96% E-EPA on fasting plasma glucose (FPG) and hemoglobin A1c (HbA1c); • 7. To determine the effect of >96% E-EPA on insulin resistance; • 8. To determine the effect of >96% E-EPA on high-sensitivity C-reactive protein (hsCRP); • 9. To determine the effects of >96% E-EPA 2 g daily and 4 g daily on the incorporation of fatty acids into red blood cell membranes and into plasma phospholipids; • 10. To explore the relationship between baseline fasting TG levels and the reduction in fasting TG levels; and • 11. To explore the relationship between changes of fatty acid concentrations in plasma and red blood cell membranes, and the reduction in fasting TG levels.
The primary efficacy variable for the double-blind treatment period was percent change in TG from baseline to Week 12 endpoint. […]

[1] = AMR 101 2 g + statin, Atorva subgroup
[2] = AMR 101 2 g + statin, Rosuva subgroup
[3] = AMR 101 2 g + statin, Simva subgroup
[4] = AMR 101 2 g + statin, Statin Potency High
[5] = AMR 101 2 g + statin, Statin Potency Low
[6] = AMR 101 2 g + statin, Statin Potency Medium
[7] = AMR 101 2 g + statin, Diabetes No, Week 12 endpoint
[8] = AMR 101 2 g + statin, Diabetes Yes, Week 12 endpoint
[9] = AMR 101 2 g + statin, Non-statin Washout No, Week 12 endpoint
[10] = AMR 101 2 g + statin, Non-statin Washout Yes, Week 12 endpoint
[11] = AMR 101 2 g + statin, baseline TG tertile Highest (≥289.5 mg/dL), Week 12 endpoint
[12] = AMR 101 2 g + statin, baseline TG tertile Lowest (<230.5 mg/dL), Week 12 endpoint
[13] = AMR 101 2 g + statin, baseline TG tertile Middle (230.5 to <289.5 mg/dL), Week 12 endpoint
[14] = AMR101 2 g/d + statin, Week 12 endpoint
[15] = AMR101 2 g/d + statin, percent change from baseline to Week 12 endpoint
[16] = AMR 101 4 g + statin, Atorva subgroup

## CC/C=C\C/C=C\C/C=C\C/C=C\C/C=C\CCCC(=O)OCC [AMR101, ethyl eicosapentaenoate]
[1]
  LDL-C Median % chg from BL: 4.9%
  LDL-C, Diff from pbo (Hodges-Lehmann median difference): 1.1
  LDL-C, EOT (Week 12 endpoint) median: 88.0
  Non-HDL-C Median % chg from BL: 10.5%
  Non-HDL-C, Diff from pbo (Hodges-Lehmann median difference): 2.0
  Non-HDL-C, EOT (Week 12 endpoint) median: 135.0
[2]
  LDL-C Median % chg from BL: 4.3%
  LDL-C, Diff from pbo (Hodges-Lehmann median difference): −4.2
  LDL-C, EOT (Week 12 endpoint) median: 87.0
  Non-HDL-C Median % chg from BL: 2.7%
  Non-HDL-C, Diff from pbo (Hodges-Lehmann median difference): −9.0
  Non-HDL-C, EOT (Week 12 endpoint) median: 133.0
[3]
  LDL-C Median % chg from BL: 1.8%
  LDL-C, Diff from pbo (Hodges-Lehmann median difference): −4.8
  LDL-C, EOT (Week 12 endpoint) median: 88.0
  Non-HDL-C Median % chg from BL: 0.0%
  Non-HDL-C, Diff from pbo (Hodges-Lehmann median difference): −6.8
  Non-HDL-C, EOT (Week 12 endpoint) median: 133.5
[4]
  LDL-C Median % chg from BL: 3.1%
  LDL-C, Diff from pbo (Hodges-Lehmann median difference): −1.7
  LDL-C, EOT (Week 12 endpoint) median: 91.0
  Non-HDL-C Median % chg from BL: 5.4%
  Non-HDL-C, Diff from pbo (Hodges-Lehmann median difference): −3.5
  Non-HDL-C, EOT (Week 12 endpoint) median: 142
[5]
  LDL-C Median % chg from BL: 0.9%
  LDL-C, Diff from pbo (Hodges-Lehmann median difference): 7.1
  LDL-C, EOT (Week 12 endpoint) median: 95.0
  Non-HDL-C Median % chg from BL: −2.2%
  Non-HDL-C, Diff from pbo (Hodges-Lehmann median difference): 3.3
  Non-HDL-C, EOT (Week 12 endpoint) median: 135
[6]
  LDL-C Median % chg from BL: 2.4%
  LDL-C, Diff from pbo (Hodges-Lehmann median difference): −5.9
  LDL-C, EOT (Week 12 endpoint) median: 85.0
  Non-HDL-C Median % chg from BL: 1.7%
  Non-HDL-C, Diff from pbo (Hodges-Lehmann median difference): −7.1
  Non-HDL-C, EOT (Week 12 endpoint) median: 133
[7]
  LDL-C Diff from pbo (median % chg, Hodges-Lehmann): −3.1%
  LDL-C EOT Median: 88.0 mg/dL
  LDL-C Median % chg from BL: 2.6%
  Non-HDL-C Diff from pbo (median % chg, Hodges-Lehmann): −8.6%
  Non-HDL-C EOT Median: 133 mg/dL
  Non-HDL-C Median % chg from BL: −0.7%
[8]
  LDL-C Diff from pbo (median % chg, Hodges-Lehmann): −3.8%
  LDL-C EOT Median: 87.0 mg/dL
  LDL-C Median % chg from BL: 2.2%
  Non-HDL-C Diff from pbo (median % chg, Hodges-Lehmann): −4.4%
  Non-HDL-C EOT Median: 135 mg/dL
  Non-HDL-C Median % chg from BL: 5.1%
[9]
  LDL-C Diff from pbo (median % chg, Hodges-Lehmann): −1.2%
  LDL-C EOT Median: 91.5 mg/dL
  LDL-C Median % chg from BL: 3.5%
  Non-HDL-C Diff from pbo (median % chg, Hodges-Lehmann): −4.6%
  Non-HDL-C EOT Median: 135 mg/dL
  Non-HDL-C Median % chg from BL: 3.8%
[10]
  LDL-C Diff from pbo (median % chg, Hodges-Lehmann): −6.3%
  LDL-C EOT Median: 85.0 mg/dL
  LDL-C Median % chg from BL: 2.2%
  Non-HDL-C Diff from pbo (median % chg, Hodges-Lehmann): −6.9%
  Non-HDL-C EOT Median: 133 mg/dL
  Non-HDL-C Median % chg from BL: 0.0%
[11]
  LDL-C Diff from pbo (median % chg, Hodges-Lehmann): −2.0%
  LDL-C EOT Median: 85.0
  LDL-C Median % chg from BL: 1.7%
  Non-HDL-C Diff from pbo (median % chg, Hodges-Lehmann): −5.0%
  Non-HDL-C EOT Median: 150
  Non-HDL-C Median % chg from BL: 3.0%
[12]
  LDL-C Diff from pbo (median % chg, Hodges-Lehmann): −5.7%
  LDL-C EOT Median: 92.0
  LDL-C Median % chg from BL: 3.1%
  Non-HDL-C Diff from pbo (median % chg, Hodges-Lehmann): −4.2%
  Non-HDL-C EOT Median: 129
  Non-HDL-C Median % chg from BL: 6.9%
[13]
  LDL-C Diff from pbo (median % chg, Hodges-Lehmann): −2.6%
  LDL-C EOT Median: 86.5
  LDL-C Median % chg from BL: 3.1%
  Non-HDL-C Diff from pbo (median % chg, Hodges-Lehmann): −7.0%
  Non-HDL-C EOT Median: 132
  Non-HDL-C Median % chg from BL: −1.2%
AMR101 2 g/d + statin
  HDL-C Week 12 EP Median (IQR): 38.0 (11.0) mg/dL
  LDL-C Week 12 EP Median (IQR): 87.0 (27.0) mg/dL
  Non-HDL-C Week 12 EP Median (IQR): 134.0 (41.0) mg/dL
  RLP-C Week 12 EP Median (IQR): 11.0 (7.0) mg/dL
  Total cholesterol Week 12 EP Median (IQR): 175.0 (44.0) mg/dL
  VLDL-C Week 12 EP Median (IQR): 44.0 (25.0) mg/dL
  VLDL-TG Week 12 EP Median (IQR): 168.0 (98.0) mg/dL
[14]
  HDL-C Percent change from Baseline Median (IQR): 0 (19.5) %
  LDL-C Percent change from Baseline Median (IQR): 2.4 (26.1) %
  Non-HDL-C Percent change from Baseline Median (IQR): 2.4 (26.1) %
  RLP-C Percent change from Baseline Median (IQR): −11.1 (40.0) %
  Total cholesterol Percent change from Baseline Median (IQR): 2.1 (19.6) %
  VLDL-C Percent change from Baseline Median (IQR): 1.6 (54.6) %
  VLDL-TG Percent change from Baseline Median (IQR): −2.1 (48.9) %
[15]
  HDL-C Difference from placebo Estimated median: −2.2%
  LDL-C Difference from placebo Estimated median: −3.6%
  Non-HDL-C Difference from placebo Estimated median: −5.5%
  RLP-C Difference from placebo Estimated median: −16.7%
  Total cholesterol Difference from placebo Estimated median: −4.8%
  VLDL-C Difference from placebo Estimated median: −10.5%
  VLDL-TG Difference from placebo Estimated median: −11.3%
[16]
  LDL-C Median % chg from BL: 9.0%
  LDL-C, Diff from pbo (Hodges-Lehmann median difference): 2.5
  LDL-C, EOT (Week 12 endpoint) median: 82.5
  Non-HDL-C Median % chg from BL: −6.3%

— patent US11285127B2, “Compositions and methods for lowering triglycerides without raising LDL-C levels in a subject on concomitant statin therapy” (Amarin Pharmaceuticals Ireland Limited, priority 2013, dated 2022)
